Results taken from the NIST ThermoML archive (doi:10.1021/je4009415).

Assay: xn = mol fraction of the nth substance listed
Conditions: Liquid, Vibrating tube method

CCOC(=O)CC [ethyl propanoate] + CCCCCCCCC
Conditions | mass density [kg/m3]
288.15 K, x1 = 0.0545 | 727.07
288.15 K, x1 = 0.1159 | 733.36
288.15 K, x1 = 0.1434 | 736.52
288.15 K, x1 = 0.2218 | 745.49
288.15 K, x1 = 0.2412 | 747.88
288.15 K, x1 = 0.3158 | 757.46
288.15 K, x1 = 0.3579 | 763.17
288.15 K, x1 = 0.4121 | 770.89
288.15 K, x1 = 0.462 | 778.51
288.15 K, x1 = 0.5039 | 785.25
288.15 K, x1 = 0.5537 | 793.58
288.15 K, x1 = 0.6035 | 802.47
288.15 K, x1 = 0.6328 | 807.91
288.15 K, x1 = 0.6935 | 819.81
288.15 K, x1 = 0.7463 | 830.79
288.15 K, x1 = 0.7907 | 840.69
288.15 K, x1 = 0.895 | 866.09
288.15 K, x1 = 0.9488 | 880.62
288.15 K, x1 = 1 | 895.58
298.15 K, x1 = 0.0538 | 718.94
298.15 K, x1 = 0.0883 | 722.45
298.15 K, x1 = 0.142 | 728.05
298.15 K, x1 = 0.2152 | 736.31
298.15 K, x1 = 0.3007 | 746.83
298.15 K, x1 = 0.3555 | 754.11
298.15 K, x1 = 0.4078 | 761.4
298.15 K, x1 = 0.4592 | 769.02
298.15 K, x1 = 0.4988 | 775.19
298.15 K, x1 = 0.5511 | 783.72
298.15 K, x1 = 0.5917 | 790.84
298.15 K, x1 = 0.6562 | 802.56
298.15 K, x1 = 0.6962 | 810.32
298.15 K, x1 = 0.741 | 819.48
298.15 K, x1 = 0.7883 | 829.57
298.15 K, x1 = 0.8559 | 845.47
298.15 K, x1 = 0.9034 | 857.27
298.15 K, x1 = 0.9521 | 870.29
298.15 K, x1 = 1 | 884.15
308.15 K, x1 = 0.0558 | 711.17
308.15 K, x1 = 0.089 | 714.43
308.15 K, x1 = 0.1555 | 721.34
308.15 K, x1 = 0.2171 | 728.16
308.15 K, x1 = 0.2586 | 733.03
308.15 K, x1 = 0.3081 | 739.12
308.15 K, x1 = 0.3829 | 748.94
308.15 K, x1 = 0.4013 | 751.5
308.15 K, x1 = 0.4533 | 759.02
308.15 K, x1 = 0.5068 | 767.11
308.15 K, x1 = 0.5509 | 774.2
